This is an account of results in US20220220128A1, “HETEROCYCLIC COMPOUNDS AS KINASE INHIBITORS, COMPOSITIONS COMPRISING THE HETEROCYCLIC COMPOUND, AND METHODS OF USE THEREOF” (JS Innopharm (Shanghai) Ltd, priority 2019, published 2022).

Structures are written as SMILES. Read-outs that look alike come from different tables or passages of the source.

One assay concerns the target T1, human RET kinase (Homo sapiens, UniProt P07949).
T1 construct: purchased Carna 08-159
Put plainly: RET Kinase Assay (LanthaScreen TR-FRET enzymatic assay). The class given is biochemical. The note with it: 7 nM RET, 23 μM ATP. In short, it runs like this:
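Human RET (7 nM) preincubated 15 min with compound in 50 mM HEPES pH 7.5, 0.0015% Brij-35, then reacted with 3 μM FAM-P2 peptide and 23 μM ATP for 1 h at 28° C.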
(In general: TR-FRET usually uses a lanthanide donor and a delayed reading to cut background.)

A further assay deals with T2, BAF3-KIF5B-RET cells (Homo sapiens, UniProt P07949).
T2 construct: fused on or other part: P33176 (Kinesin-1 heavy chain)
Briefly: BAF3-KIF5B-RET Cell proliferation assay (CellTiter-Glo, 72 hours). The format is cell-based. The note with it: growth inhibition, read-out: BA/F3-KIF5B-RET Cellular activity. How it is done:
Compounds disclosed herein were tested for the inhibition of RET by a cancer cell proliferation assay commonly known as CellTiter-Glo assay. In this assay, a complete media was prepared by adding 10% fetal bovine serum to RPMI-1640 medium (Life technology) for BAF3-FIF5B-RET cells. BAF3-KIF5B-RET cells were added to each of 88 wells of a 96 well plate at a seeding density of 2,000 cells/well/95 μL. The cells were allowed to attach to the plate by incubating at 37° C. for 24 hours. The compound was dissolved in DMSO (SIGMA). A solution of test compound was prepared in complete media by serial dilution to obtain the following concentrations: 20 μM, 6.67 μM, 2.22 μM, 0.74 μM, 0.25 μM, 0.082 μM, 0.027 μM, 0.0091 μM and 0.0030 μM. The test compound solution (5 μL) was added to each of 80 cell-containing wells. The final concentrations of the compound were following: 1 μM, 0.33 μM, 0.11 μM, 0.037 μM, 0.012 μM, 0.0041 μM, 0.0014 μM, 0.00046 μM and 0.00015 μM. The final concentration of DMSO is 0.1%. To the 8 remaining cell-containing wells, only complete media (containing 0.1% DMSO) was added to form a control group in order to measure maximal proliferation. To the remaining 8 empty wells, complete media was added to for a vehicle control group in order to measure background. The plates were incubated at 37° C. for 72 hours. 50 μl of CellTiter-Glo® Reagent was added to each well. Mix contents for 2 minutes on an orbital shaker to induce cell lysis. Incubate at room temperature for 10 minutes to stabilize luminescent signal. Record luminescence on Paradigm. Cell viability (CV %) was calculated relative to vehicle (DMSO) treated control wells. The IC50 was calculated using GraphPad Prism.
In general terms: In ATP-based viability assays light output follows the ATP content of the culture.

For another assay, the target named is T3, human KDR kinase (Homo sapiens, UniProt P35968).
T3 construct: purchased Carna 08-191
Briefly: KDR Kinase Assay (LanthaScreen TR-FRET enzymatic assay). The settings on record: 1.2 nM KDR, 92 μM ATP. The class given is biochemical. An outline of the steps: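 Recombinant human KDR (1.2 nM) preincubated 15 min at room temperature with compound, then reacted with 3 μM FAM-P22 peptide and 92 μM ATP in 50 mM HEPES pH 7.5 for 1 h at 28° C. EDTA stop, then TR-FRET acceptor/donor ratio read; percent of 1% DMSO control fitted sigmoidally for IC50.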

A further assay concerns TT cells. Put plainly: TT Cell Proliferation Assay (WST-8, 8 days). The class given is cell-based. The settings on record: growth inhibition in TT cells, read-out: TT Cellular Activity. In short, it runs like this: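 TT cells, 6,000/well in RPMI-1640 with 10% FBS, attached 24 h, then exposed to compound at 5 μM down to 0.0005 μM final (0.5% DMSO) for 8 days at 37 °C. WST-8 added for 5 h, absorbance at 450 nm. IC50 calculated from the dilution series.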
For orientation: Tetrazolium assays rely on reduction of a dye to a coloured formazan, in cell work by metabolically active cells.

T1 sequence (P07949 29-1114): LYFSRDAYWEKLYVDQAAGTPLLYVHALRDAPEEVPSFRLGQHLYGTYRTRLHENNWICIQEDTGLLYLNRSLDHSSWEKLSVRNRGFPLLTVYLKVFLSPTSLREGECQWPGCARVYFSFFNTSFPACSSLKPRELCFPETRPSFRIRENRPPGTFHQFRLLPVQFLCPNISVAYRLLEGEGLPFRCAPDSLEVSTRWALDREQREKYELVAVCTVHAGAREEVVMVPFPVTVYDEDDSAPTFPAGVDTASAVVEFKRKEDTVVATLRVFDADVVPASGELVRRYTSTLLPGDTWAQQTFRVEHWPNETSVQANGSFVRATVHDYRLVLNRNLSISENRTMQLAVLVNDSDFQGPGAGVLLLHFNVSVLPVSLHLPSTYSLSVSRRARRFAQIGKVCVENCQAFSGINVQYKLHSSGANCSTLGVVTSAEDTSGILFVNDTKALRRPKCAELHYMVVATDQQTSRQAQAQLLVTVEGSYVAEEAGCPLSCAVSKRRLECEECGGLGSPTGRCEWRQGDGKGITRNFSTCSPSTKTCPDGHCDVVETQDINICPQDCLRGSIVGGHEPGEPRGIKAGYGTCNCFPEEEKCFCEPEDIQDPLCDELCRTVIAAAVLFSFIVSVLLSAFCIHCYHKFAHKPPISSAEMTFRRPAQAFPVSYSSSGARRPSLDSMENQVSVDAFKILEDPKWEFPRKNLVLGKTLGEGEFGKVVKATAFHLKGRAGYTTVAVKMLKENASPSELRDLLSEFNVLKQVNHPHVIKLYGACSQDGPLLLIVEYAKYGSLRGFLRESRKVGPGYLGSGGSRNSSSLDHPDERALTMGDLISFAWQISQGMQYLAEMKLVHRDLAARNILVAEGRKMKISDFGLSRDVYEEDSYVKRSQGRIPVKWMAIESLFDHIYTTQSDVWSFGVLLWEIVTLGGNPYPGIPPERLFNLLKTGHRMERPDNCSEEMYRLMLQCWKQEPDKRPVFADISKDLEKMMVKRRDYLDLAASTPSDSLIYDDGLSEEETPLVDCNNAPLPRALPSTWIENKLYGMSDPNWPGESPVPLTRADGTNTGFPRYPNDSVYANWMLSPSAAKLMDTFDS
T2 sequence (P07949 whole entry, change not shown, the tested form may be a part): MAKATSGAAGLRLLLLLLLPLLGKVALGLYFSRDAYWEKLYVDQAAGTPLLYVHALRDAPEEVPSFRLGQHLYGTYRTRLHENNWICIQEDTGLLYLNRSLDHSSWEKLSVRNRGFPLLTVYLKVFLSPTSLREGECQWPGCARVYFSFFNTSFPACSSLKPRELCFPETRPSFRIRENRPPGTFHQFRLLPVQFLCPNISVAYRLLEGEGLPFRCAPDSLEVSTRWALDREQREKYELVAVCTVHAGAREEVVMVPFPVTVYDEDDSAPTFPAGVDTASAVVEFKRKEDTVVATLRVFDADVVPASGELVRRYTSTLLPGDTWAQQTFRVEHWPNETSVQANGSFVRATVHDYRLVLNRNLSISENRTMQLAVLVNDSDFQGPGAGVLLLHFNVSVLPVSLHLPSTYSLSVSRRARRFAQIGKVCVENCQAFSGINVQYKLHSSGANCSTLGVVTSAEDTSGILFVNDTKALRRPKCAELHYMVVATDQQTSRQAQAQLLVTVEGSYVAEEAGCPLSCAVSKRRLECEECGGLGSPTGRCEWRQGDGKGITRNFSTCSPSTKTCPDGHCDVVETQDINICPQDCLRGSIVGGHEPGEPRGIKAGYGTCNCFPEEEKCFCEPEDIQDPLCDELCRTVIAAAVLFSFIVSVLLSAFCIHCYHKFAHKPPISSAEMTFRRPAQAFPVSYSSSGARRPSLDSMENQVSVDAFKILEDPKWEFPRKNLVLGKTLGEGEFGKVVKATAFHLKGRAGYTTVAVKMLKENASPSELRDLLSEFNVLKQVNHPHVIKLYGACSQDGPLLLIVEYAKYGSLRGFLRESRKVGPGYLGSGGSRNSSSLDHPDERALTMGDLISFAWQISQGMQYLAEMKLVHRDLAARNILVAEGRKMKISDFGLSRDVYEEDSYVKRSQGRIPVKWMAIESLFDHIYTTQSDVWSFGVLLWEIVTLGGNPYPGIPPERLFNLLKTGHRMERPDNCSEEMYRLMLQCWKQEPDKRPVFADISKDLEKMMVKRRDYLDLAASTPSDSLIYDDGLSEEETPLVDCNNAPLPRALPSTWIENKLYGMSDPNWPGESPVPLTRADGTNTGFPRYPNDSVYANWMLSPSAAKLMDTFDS
T3 sequence (P35968 20-1356): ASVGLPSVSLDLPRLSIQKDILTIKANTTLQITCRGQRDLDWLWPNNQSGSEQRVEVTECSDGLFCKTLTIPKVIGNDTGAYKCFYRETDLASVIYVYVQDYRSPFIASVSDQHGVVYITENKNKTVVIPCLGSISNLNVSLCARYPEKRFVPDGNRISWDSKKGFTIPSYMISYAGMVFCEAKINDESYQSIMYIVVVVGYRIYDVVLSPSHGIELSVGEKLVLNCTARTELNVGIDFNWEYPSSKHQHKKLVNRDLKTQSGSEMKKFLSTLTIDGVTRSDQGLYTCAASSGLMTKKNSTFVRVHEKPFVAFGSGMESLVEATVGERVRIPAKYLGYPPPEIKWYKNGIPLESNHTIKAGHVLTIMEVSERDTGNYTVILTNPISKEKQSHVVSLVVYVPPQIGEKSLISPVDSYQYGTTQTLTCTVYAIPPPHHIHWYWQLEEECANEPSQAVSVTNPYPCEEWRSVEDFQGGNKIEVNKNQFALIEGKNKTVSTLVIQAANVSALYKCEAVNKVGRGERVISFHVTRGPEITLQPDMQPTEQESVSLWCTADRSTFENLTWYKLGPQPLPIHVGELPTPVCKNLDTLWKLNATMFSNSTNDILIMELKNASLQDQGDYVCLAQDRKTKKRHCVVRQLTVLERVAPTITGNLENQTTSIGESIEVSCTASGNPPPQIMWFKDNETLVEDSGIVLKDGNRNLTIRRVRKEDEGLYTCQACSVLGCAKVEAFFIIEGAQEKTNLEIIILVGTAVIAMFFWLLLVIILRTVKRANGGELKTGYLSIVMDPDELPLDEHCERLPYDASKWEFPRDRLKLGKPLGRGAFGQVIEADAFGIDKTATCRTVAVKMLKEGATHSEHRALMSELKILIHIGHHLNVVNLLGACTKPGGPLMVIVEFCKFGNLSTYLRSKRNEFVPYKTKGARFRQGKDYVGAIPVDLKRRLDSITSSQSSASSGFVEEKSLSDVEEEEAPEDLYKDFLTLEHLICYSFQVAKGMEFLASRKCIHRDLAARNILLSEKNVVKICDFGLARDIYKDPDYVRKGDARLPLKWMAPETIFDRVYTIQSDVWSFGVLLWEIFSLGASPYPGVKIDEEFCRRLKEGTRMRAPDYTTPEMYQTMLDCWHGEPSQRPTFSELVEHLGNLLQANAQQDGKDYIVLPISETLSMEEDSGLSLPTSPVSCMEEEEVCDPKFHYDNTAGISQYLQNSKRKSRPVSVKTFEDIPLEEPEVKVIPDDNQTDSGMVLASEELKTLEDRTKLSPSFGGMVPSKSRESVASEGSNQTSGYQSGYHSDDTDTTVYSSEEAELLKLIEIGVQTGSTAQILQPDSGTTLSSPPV

`COc1ccc(NC(=O)C23CC4CC(C2)N(c2ccc(-c5cc(OCC(C)(C)O)cn6ncc(C#N)c56)cn2)C(C4)C3)cn1` [Example 133, (1R,3S,5s,7s)-2-(5-(3-cyano-6-(2-hydroxy-2-methylpropoxy)pyrazolo[1,5-a]pyridin-4-yl)pyridin-2-yl)-N-(6-methoxypyridin-3-yl)-2-azaadamantane-5-carboxamide] registered an IC50 on human RET kinase of at most 10 nM. Besides, on BAF3-KIF5B-RET cells, the GI50 was 10 to 50 nM.

In turn, `COc1cccnc1C(=O)NC[C@@H]1[C@H]2CN(c3ccc(-c4cc(-c5cnn(C)c5)cn5ncc(C#N)c45)cn3)C[C@@H]12` [Example 191, N-(((1R,5S,6s)-3-(5-(3-cyano-6-(1-methyl-1H-pyrazol-4-yl)pyrazolo[1,5-a]pyridin-4-yl)pyridin-2-yl)-3-azabicyclo[3.1.0]hexan-6-yl)methyl)-3-methoxypicolinamide] displayed an IC50 at human RET kinase of at most 10 nM. Also, the GI50 on BAF3-KIF5B-RET cells is at most 10 nM.

In turn, `COc1ccc(CN2[C@@H]3CC[C@H]2[C@H]2CN(c4ccc(-c5cc(OCC(C)(C)O)cn6ncc(C#N)c56)cn4)C[C@H]23)cn1` [Example 117, 6-(2-hydroxy-2-methylpropoxy)-4-(6-((3aR,4S,7R,7aS)-8-((6-methoxypyridin-3-yl)methyl)hexahydro-1H-4,7-epiminoisoindol-2(3H)-yl)pyridin-3-yl)pyrazolo[1,5-a]pyridine-3-carbonitrile] registered an IC50 against human RET kinase of 10 to 50 nM. The GI50 on BAF3-KIF5B-RET cells was above 100 nM.

Regarding `Cn1cc(-c2cc(-c3ccc(N4C[C@@H]5[C@@H](CNC(=O)c6ccnc(C(F)(F)F)c6)[C@@H]5C4)nc3)c3c(C#N)cnn3c2)cn1` [Example 196, N-(((1R,5S,6s)-3-(5-(3-cyano-6-(1-methyl-1H-pyrazol-4-yl)pyrazolo[1,5-a]pyridin-4-yl)pyridin-2-yl)-3-azabicyclo[3.1.0]hexan-6-yl)methyl)-2-(trifluoromethyl)isonicotinamide], the IC50 on human RET kinase was at most 10 nM. Besides, on BAF3-KIF5B-RET cells, the GI50 was in the range of 50 to 100 nM.

The molecule `CCOc1cc(-c2cnc(N3C4CC5CC3CC(NC=O)(C5)C4)cn2)c2c(C#N)cnn2c1` [Example 161, N-((1R,3S,5s,7s)-2-(5-(3-cyano-6-ethoxypyrazolo[1,5-a]pyridin-4-yl)pyrazin-2-yl)-2-azaadamantan-5-yl)formamide] yielded an IC50 against human RET kinase of at most 10 nM. In addition, the GI50 on BAF3-KIF5B-RET cells was above 100 nM.

Consider `COc1ccc(CNC(=O)[C@H]2[C@@H]3CN(c4ccc(-c5cc(OCC(C)(C)O)cn6ncc(C#N)c56)cn4)C[C@@H]32)cn1` [Example 119, (1R,5S,6r)-3-(5-(3-cyano-6-(2-hydroxy-2-methylpropoxy)pyrazolo[1,5-a]pyridin-4-yl)pyridin-2-yl)-N-((6-methoxypyridin-3-yl)methyl)-3-azabicyclo[3.1.0]hexane-6-carboxamide], for which the IC50 at human RET kinase was at most 10 nM. Moreover, the GI50 at BAF3-KIF5B-RET cells is 50 to 100 nM.

Molecule `COc1ccc(C(=O)NC23CC4CC(C2)N(c2cnc(-c5cc(OCC(C)(C)O)cn6ncc(C#N)c56)cn2)C(C4)C3)cn1` [Example 166, N-((1R,3S,5s,7s)-2-(5-(3-cyano-6-(2-hydroxy-2-methylpropoxy)pyrazolo[1,5-a]pyridin-4-yl)pyrazin-2-yl)-2-azaadamantan-5-yl)-6-methoxynicotinamide] yielded an IC50 on human RET kinase of at most 10 nM. The GI50 at BAF3-KIF5B-RET cells was 10 to 50 nM.

As for `COc1ccc(NC(=O)[C@]2(C)C[C@H]3CN(c4ccc(-c5cc(-c6ccn(C)n6)cn6ncc(C#N)c56)cn4)C[C@H]3C2)cn1` [Example 113, (3aR,5s,6aS)-2-(5-(3-cyano-6-(1-methyl-1H-pyrazol-3-yl)pyrazolo[1,5-a]pyridin-4-yl)pyridin-2-yl)-N-(6-methoxypyridin-3-yl)-5-methyloctahydrocyclopenta[c]pyrrole-5-carboxamide], the IC50 at human RET kinase is at most 10 nM. Further, the GI50 at BAF3-KIF5B-RET cells is at most 10 nM.

`CC(=O)NC12CC3CC(C1)N(c1cnc(-c4cc(-c5cnn(C)c5)cn5ncc(C#N)c45)cn1)C(C3)C2` [Example 111, N-((1R,3S,5s,7s)-2-(5-(3-cyano-6-(1-methyl-1H-pyrazol-4-yl)pyrazolo[1,5-a]pyridin-4-yl)pyrazin-2-yl)-2-azaadamantan-5-yl)acetamide] had an IC50 on human RET kinase of at most 10 nM. At BAF3-KIF5B-RET cells, the GI50 was at most 10 nM.

`CC(C)(O)COc1cc(-c2ccc(N3C[C@@H]4[C@@H](CNC(=O)c5c(F)cccc5Cl)[C@@H]4C3)nc2)c2c(C#N)cnn2c1` [Example 125, 2-chloro-N-(((1R,5S,6s)-3-(5-(3-cyano-6-(2-hydroxy-2-methylpropoxy)pyrazolo[1,5-a]pyridin-4-yl)pyridin-2-yl)-3-azabicyclo[3.1.0]hexan-6-yl)methyl)-6-fluorobenzamide] came in with an IC50 against human RET kinase of at most 10 nM. Further, on BAF3-KIF5B-RET cells, the GI50 was at most 10 nM.

Regarding `Cn1cc(-c2cc(-c3ccc(N4C[C@@H]5[C@@H](CNC(=O)C(C)(C)C)[C@@H]5C4)nc3)c3c(C#N)cnn3c2)cn1` [Example 87, N-(((1R,5S,6s)-3-(5-(3-cyano-6-(1-methyl-1H-pyrazol-4-yl)pyrazolo[1,5-a]pyridin-4-yl)pyridin-2-yl)-3-azabicyclo[3.1.0]hexan-6-yl)methyl)pivalamid], the IC50 against human RET kinase was at most 10 nM; at human KDR kinase it was 10 to 50 nM; in the assay on TT cells (Homo sapiens, TT, 192 h), at most 10 nM.

In the case of `Cc1ccc(Cl)c(C(=O)NC[C@@H]2[C@H]3CN(c4ccc(-c5cc(-c6cnn(C)c6)cn6ncc(C#N)c56)cn4)C[C@@H]23)n1` [Example 82, 3-chloro-N-(((1R,5S,6s)-3-(5-(3-cyano-6-(1-methyl-1H-pyrazol-4-yl)pyrazolo[1.5-a]pyridin-4-yl)pyridin-2-yl)-3-azabicyclo[3.1.0]hexan-6-yl)methyl)-6-methylpicolinamide], the IC50 is at most 10 nM against human RET kinase; at most 10 nM on human KDR kinase; at most 10 nM in the assay on TT cells (Homo sapiens, TT, 192 h).

In the case of `COc1ccc(C(=O)N[C@]2(C)C[C@H]3CN(c4ccc(-c5cc(OCC(C)(C)O)cn6ncc(C#N)c56)cn4)C[C@H]3C2)cn1` [Example 126, N-((3aR,5s,6aS)-2-(5-(3-cyano-6-(2-hydroxy-2-methylpropoxy)pyrazolo[1,5-a]pyridin-4-yl)pyridin-2-yl)-5-methyloctahydrocyclopenta[c]pyrrol-5-yl)-6-methoxynicotinamide], the IC50 is 10 to 50 nM against human RET kinase; 10 to 50 nM against human KDR kinase; 50 to 100 nM with TT cells (Homo sapiens, TT, 192 h).

With `Cc1cccc(Cl)c1C(=O)NC[C@@H]1[C@H]2CN(c3ccc(-c4cc(-c5cnn(C)c5)cn5ncc(C#N)c45)cn3)C[C@@H]12` [Example 84, 2-chloro-N-(((1R,5S,6s)-3-(5-(3-cyano-6-(1-methyl-1H-pyrazol-4-yl)pyrazolo[1,5-a]pyridin-4-yl)pyridin-2-yl)-3-azabicyclo[3.1.0]hexan-6-yl)methyl)-6-methylbenzamide], the IC50 on human RET kinase, on human KDR kinase and with TT cells was at most 10 nM throughout.

With `Cn1cc(-c2cc(-c3ccc(N4C[C@@H]5[C@H](C4)[C@@H]5NC(=O)Nc4ccccc4)nc3)c3c(C#N)cnn3c2)cn1` [Example 36, 1-((1R,5S,6r)-3-(5-(3-cyano-6-(1-methyl-1H-pyrazol-4-yl)pyrazolo[1,5-a]pyridin-4-yl)pyridin-2-yl)-3-azabicyclo[3.1.0]hexan-6-yl)-3-phenylurea], the IC50 at human RET kinase is at most 10 nM; at human KDR kinase it was at most 10 nM; in the assay with TT cells (Homo sapiens, TT, 192 h), 10 to 50 nM.
